The record followed here is ChEMBL document CHEMBL1139619, “Exploiting a basic chemosensitizing pharmacophore hypothesis. Part 1: synthesis and biological evaluation of novel arylbromide and bicyclic chemosensitizers against drug-resistant malaria parasites” (Bioorg Med Chem Lett, 2005).

Assay [1] has as its system Plasmodium falciparum. Nature of the assay: (§1) In vitro inhibitory concentration against Plasmodium falciparum FCM29. Format: functional, organism-based.
Assay [2] deals with Plasmodium falciparum. Nature of the assay: (§2) In vitro inhibitory concentration against chloroquine-enhancing Plasmodium falciparum FCM29 at 1.5 ug/mL. Format: functional.
Assay [3] deals with Plasmodium falciparum. The assay is described as §1. Format: functional.
Assay [4] concerns Plasmodium falciparum. Nature of the assay: (§3) In vitro inhibitory concentration against Plasmodium falciparum FCM29 at 1 ug/mL. It counts as functional.
Assay [5] relates to Plasmodium falciparum. Nature of the assay: (§4) In vitro inhibitory concentration against chloroquine-enhancing Plasmodium falciparum FCM29 at 2 ug/mL. Format: functional.
The test system of assay [6] is Plasmodium falciparum. The description is as §4. It counts as functional, organism-based.
Assay [7] has as its system Plasmodium falciparum. Described as §3. It counts as functional, organism-based.
In assay [8] the test system is Plasmodium falciparum. The assay is described as §2. Format: functional, organism-based.
The subject of assay [9] is Plasmodium falciparum. Nature of the assay: (§5) In vitro inhibitory concentration against chloroquine-enhancing Plasmodium falciparum FCM29 at 3 ug/mL. It counts as functional, organism-based.
The test system of assay [10] is Plasmodium falciparum. Described as §5. It counts as functional.
Assay [11] has as its system Plasmodium falciparum. Nature of the assay: In vitro inhibition against Plasmodium falciparum FCM29 at 2 ug/mL. Format: functional, organism-based.
In assay [12] the test system is Plasmodium falciparum. Nature of the assay: (§6) In vitro inhibitory concentration against Plasmodium falciparum FCM29 @ concentration of 00 ug/mL. It counts as functional.
Assay [13] relates to Plasmodium falciparum. Nature of the assay: (§7) In vitro inhibitory concentration against chloroquine-enhancing Plasmodium falciparum FCM29 at 0.5 ug/mL. Format: functional.
The subject of assay [14] is Plasmodium falciparum. Nature of the assay: In vitro inhibitory concentration against Plasmodium falciparum FCM29 at 2 ug/mL. It counts as functional.
The subject of assay [15] is Plasmodium falciparum. Nature of the assay: In vitro inhibitory concentration against Plasmodium falciparum FCM29 at 4 ug/mL. Format: functional.
Assay [16] is described as follows: In vitro inhibitory concentration against chloroquine-enhancing Plasmodium falciparum FCM29 @ concentration of 1 ug/mL. Format: functional.
Assay [17] deals with Plasmodium falciparum. Nature of the assay: In vitro inhibitory concentration against Plasmodium falciparum FCM29 @ concentration of 0.5 ug/mL. It counts as functional.
Assay [18] in a line: as §6. It counts as functional.
Assay [19] relates to Plasmodium falciparum. Described as §7. It counts as functional, organism-based.
Assay [20] in a line: In vitro inhibitory concentration against chloroquine-enhancing Plasmodium falciparum FCM29 @ concentration of 00 ug/mL. It counts as functional.
For assay [21], the system named is Plasmodium falciparum. Nature of the assay: In vitro inhibition against Plasmodium falciparum FCM29 at 4 ug/mL. It counts as functional, organism-based.
Assay [22] concerns Plasmodium falciparum. Nature of the assay: In vitro inhibitory concentration chloroquine-enhancing against chloroquine-enhancing Plasmodium falciparum FCM29 at 0.75 ug/mL. It counts as functional, organism-based.
The subject of assay [23] is Plasmodium falciparum. Nature of the assay: In vitro inhibitory concentration against chloroquine-enhancing Plasmodium falciparum FCM29 at 0.75 ug/mL. Format: functional.
Assay [24] deals with Plasmodium falciparum. Nature of the assay: In vitro inhibitory concentration against Plasmodium falciparum FCM29 at 1.5 ug/mL. Format: functional.
Assay [25] relates to Plasmodium falciparum. Nature of the assay: In vitro inhibitory concentration chloroquine-enhancing against Plasmodium falciparum FCM29 at 0.375 ug/mL. Format: functional.
The test system of assay [26] is Plasmodium falciparum. Nature of the assay: In vitro inhibitory concentration against chloroquine-enhancing Plasmodium falciparum FCM29 at2.50 ug/mL. Format: functional.
In assay [27] the test system is Plasmodium falciparum. Nature of the assay: In vitro inhibitory concentration against chloroquine-enhancing Plasmodium falciparum FCM29 at.62 ug/mL. It counts as functional, organism-based.
For assay [28], the system named is Plasmodium falciparum. Nature of the assay: In vitro inhibitory concentration against chloroquine-enhancing Plasmodium falciparum FCM29 at 2.50 ug/mL. Format: functional, organism-based.
Assay [29] has as its system Plasmodium falciparum. Nature of the assay: (§8) In vitro inhibitory concentration against chloroquine-enhancing Plasmodium falciparum FCM29 at 1.25 ug/mL. Format: functional.
Assay [30] relates to Plasmodium falciparum. The description is as §8. It counts as functional, organism-based.
The subject of assay [31] is Plasmodium falciparum. Nature of the assay: In vitro inhibitory concentration against Plasmodium falciparum FCM29 at 0.62 ug/mL. It counts as functional.
The subject of assay [32] is Plasmodium falciparum. Nature of the assay: (§9) In vitro inhibitory concentration against chloroquine-enhancing Plasmodium falciparum FCM29 at 1.36 ug/mL. It counts as functional, organism-based.
The test system of assay [33] is Plasmodium falciparum. Nature of the assay: In vitro inhibition against Plasmodium falciparum FCM29 at 0.68 ug/mL. It counts as functional, organism-based.
For assay [34], the system named is Plasmodium falciparum. The assay is described as §9. Format: functional.
Assay [35] relates to Plasmodium falciparum. Nature of the assay: In vitro inhibitory concentration against Plasmodium falciparum FCM29 at 0.68 ug/mL. Format: functional.
Assay [36] has as its system Plasmodium falciparum. Nature of the assay: (§10) In vitro inhibitory concentration against chloroquine-enhancing Plasmodium falciparum FCM29 at 0.6 ug/mL. It counts as functional.
Assay [37] relates to Plasmodium falciparum. Nature of the assay: In vitro inhibition against Plasmodium falciparum FCM29 at 0.3 ug/mL. Format: functional, organism-based.
For assay [38], the system named is Plasmodium falciparum. Described as §10. Format: functional, organism-based.
The test system of assay [39] is Plasmodium falciparum. Nature of the assay: In vitro inhibitory concentration against Plasmodium falciparum FCM29 at 0.3 ug/mL. It counts as functional.
The subject of assay [40] is Plasmodium falciparum. Nature of the assay: In vitro inhibition against Plasmodium falciparum FCM29 at 3 ug/mL. It counts as functional, organism-based.
Assay [41] deals with Plasmodium falciparum. Nature of the assay: In vitro inhibitory concentration against Plasmodium falciparum FCM29 at 3 ug/mL. Format: functional.
Assay [42] has as its system Plasmodium falciparum. Nature of the assay: (§11) In vitro inhibitory concentration against chloroquine-enhancing Plasmodium falciparum FCM29 at 5 ug/mL. Format: functional, organism-based.
In assay [43] the test system is Plasmodium falciparum. Nature of the assay: In vitro inhibition against Plasmodium falciparum FCM29 at 0.62 ug/mL. It counts as functional, organism-based.
For assay [44], the system named is Plasmodium falciparum. Nature of the assay: (§12) In vitro inhibitory concentration against chloroquine-enhancing Plasmodium falciparum FCM29 at 2.5 ug/mL. Format: functional, organism-based.
For assay [45], the system named is Plasmodium falciparum. Described as §11. It counts as functional.
Assay [46] relates to Plasmodium falciparum. The description is as §12. It counts as functional.

pIC50: −log10 of the molar value. Values after ≈ are worked out from the molar mass of the structure shown. Values joined by “and” are separate entries in the source; they are usually repeats but may differ in a detail not shown here. Equal values may be shown once.

The term IC50 denotes the concentration at which inhibition is half-maximal. One may read the IC90 as the concentration at which the effect reaches the 90% level. As a reminder, the pIC50 is the IC50 on a negative log10 scale, so that one unit is a factor of ten. As to `CCN(CC)CCCOc1ccccc1-c1ccccc1`, half-maximal inhibition in assay [1] (IC50) was put at 3.3 µg/mL (≈ 11.6 µM). Also, the IC90 in assay [2] was found to be 301 nM; in assay [3], 22.3 µg/mL (≈ 78.7 µM); in assay [4] (Plasmodium falciparum), 534 nM; in assay [5] it was 191 nM; in assay [10], 157 nM. Also, the pIC50 in assay [6] was 8.12; in [7] (Plasmodium falciparum), 7.27; in [8], 7.37; in assay [9], 8.52.
On to `CCN(CC)CCCNc1ccc(Br)cc1`, for which the pIC50 is 7.16 in assay [11]; 7.02 in [16]; 6.79 in [18]; 6.84 in assay [19]; 6.79 in assay [20]; 7.54 in [21]. The compound further had an IC50 in assay [1] of 6.1 µg/mL (≈ 21.4 µM). For the same compound, the IC90 in [3] came out at 66.7 µg/mL (≈ 234 µM); in [12], 843 nM; in assay [13], 745 nM; in assay [14] it was 272 nM; in assay [15], 273 nM; in assay [17] it was 745 nM.
On to `CCN(CC)CCCNc1ccc(-c2ccccc2)cc1`, for which the IC50 in assay [1] came out at 2.9 µg/mL (≈ 10.3 µM). In addition, the pIC50 in assay [22] is 7.27; in assay [8] it was 7.59. The IC90 was 18.5 µg/mL (≈ 65.5 µM) in [3]; 198 nM in assay [23]; 114 nM in assay [24]; 98.2 nM and 368 nM in assay [25].
As to `CCN(CC)CCCNc1ccccc1-c1ccccc1`, the IC90 in assay [26] amounted to 373 nM; in assay [3] it was 94.6 µg/mL (≈ 335 µM); in assay [29], 400 nM; in assay [31], 820 nM. The compound also returned an IC50 in [1] of 3.1 µg/mL (≈ 11 µM). Further, the pIC50 was 6.86 in [27], 7.94 in [28] and 7.14 in assay [30].
Take `CCN(CC)CCCNc1cccc(-c2ccccc2)c1`: the pIC50 in assay [32] was 6.96; in [33], 6.80. The compound also yielded an IC50 in assay [1] of 2.3 µg/mL (≈ 8.14 µM). For the same compound, the IC90 is 20.8 µg/mL (≈ 73.6 µM) in [3], 630 nM in [34] and 781 nM in [35].
`CCN(CC)CCCOc1ccc(-c2ccccc2)cc1` displayed an IC50 in assay [1] of 1.7 µg/mL (≈ 6 µM). Further, the 90% effect concentration (IC90) in assay [3] was found to be 24.4 µg/mL (≈ 86.1 µM); in [36] it was 311 nM; in [39] it was 655 nM. The results for the pIC50 in assay [37] and in [38] were 6.77 and 6.99, respectively.
With `CCN(CC)CCCNc1ccccc1Br`, the pIC50 in assay [11] is 7.54; in assay [40], 8.21; in assay [7] (Plasmodium falciparum), 7.24; in [8] it was 7.39. The IC50 in [1] came out at 3.7 µg/mL (≈ 13 µM). Further, the IC90 worked out at 195 nM in assay [2], 290 nM in [4] (Plasmodium falciparum), 153 nM in assay [41] and 134 nM in assay [14].
Turning to `CCN(CC)CCCOc1cccc(-c2ccccc2)c1`, the pIC50 is 7.15 in assay [11]; 7.11 in [6]; 6.93 in assay [7]; 7.00 in assay [7] (Plasmodium falciparum); 6.82 in assay [19]; 8.51 in assay [21]. Moreover, the IC50 in [1] came to 3.1 µg/mL (≈ 10.9 µM). The IC90 in [3] was 49.5 µg/mL (≈ 175 µM); in assay [4] it was 255 nM and 745 nM; in assay [5] it was 556 nM; in [13], 736 nM; in [14] it was 205 nM; in assay [15], 73.2 nM.
In assay [1], `CCN(CC)CCCNc1cccc(Br)c1` came in with an IC50 of 7.6 µg/mL (≈ 26.6 µM). Further, the pIC50 in assay [42] was 8.14; in assay [43], 6.96; in [44], 7.41; in assay [30] it was 7.16. For the same compound, the IC90 stood at 80.3 µg/mL (≈ 282 µM) in assay [3]; 392 nM in assay [29]; 210 nM in assay [45]; 809 nM in assay [31]; 443 nM in [46].
